Experimental data reported in patent US20060013804A1, “Modulation of stem cell differentiation by modulation of caspase-3 activity” (Ottawa Health Research Institute, priority 2002, published 2006).
“Also recorded” adds a separate entry of the source.

Experiments:
[1] = system: CD1 neurosphere cells; experiment: Annexin-V-PI flow cytometry of differentiating neurosphere cells; format: cell-based, mouse
Description: (§1) Neurospheres were sub-cultured no more than once per collection. The differentiation of neurospheres was initated by plating spheres on poly-L-ornithine coated plates in NeuroCult Differentiation Medium in the absence of bFGF, as per manufacturer's instructions. […] All cultures received fresh media and inhibitor every 24 h for the duration of the experiment. Neurospheres from caspase 3 null embryos (Fernando, P., et al., (2002) Proc Natl Acad Sci USA 99, 11025-11030) were cultured as described above.
Flow Cytometry: Annexin-V-propidium iodide (PI) analysis of apoptotic and nectrotic cells was performed using an Annexin-V-FLUOS staining kit (Roche, USA). Analyses were performed using a Beckman-Coulter ALTRA flow cytometer. To detect Annexin-V and PI positive cells, flow cytometric channels were gated using cells without stain, stained with PI alone and stained with Annexin-V alone. Cells that had dissociated from their neurosphere bodies were gently collected without excessive disruption of the sphere/cell body. These cells were chosen for flow cytometry analyses. Each sample was gated to control for cellular debris.
As in most developmental processes, a population of cells is required to undergo apoptosis prior to the differentiation of a separate pool of cells. Clearly, the inhibition of caspase 3 may adversely affect this process. To address this issue, we measured the degree of apoptosis that occurred during differentiation in caspase 3 inhibited and uninhibited cells using the specific caspase 3 peptide inhibitor zDEVD.fmk and Annexin V-propidium iodide (PI) staining coupled to cytometric analyses (FIG. 15). Annexin V detects cells that are either apoptotic or necrotic whereas propidium iodide is able to detect necrotic cells. Together, Annexin-V-PI analyses identify the population of cells that are apoptotic, i.e. Annexin-V positive/PI negative. To control for the heterogeneity of cells within neurospheres as described previously (Bez et al., (2003) Brain Res 993, 18-29), we performed our analyses on cells that had dissociated from the neurosphere. […]

[2] = system: clonally-derived CD1 neurospheres; experiment: Neurite extensions / morphology of differentiating neurospheres; format: cell-based, mouse; conditions: differentiation media up to 5 d, 2.0 μM inhibitor, vs DMSO
Description: as §1
Immunocytochemistry: Neurospheres were collected at selected time points, fixed in 4% paraformaldehyde and prepared for immunostaining as previously described (Fernando, P., et al., (2002) Proc Natl Acad Sci USA 99, 11025-11030)). The primary antibody concentrations for anti-nestin, -GFAP, -MBP and -active caspase 3 (BioVision, USA) were titrated on wildtype CD1 neurospheres prior to their experimental use. These antibodies were visualized by counterstaining with either FITC or Cy3 conjugated secondary antibodies (Chemicon USA). Nuclei were localized with 4′,6-Diamidino-2 phenylindole (DAPI) (Sigma, USA). Cells were visualized using either an Axiovert 100 for transmission microscopy or Axioplan 2 for fluorescent microscopy (Zeiss, Germany) at selected magnifications. Captured images were processed using AxioVision Viewer 3.0 software.
Quantitation of Neurite Extensions: Neurites from differentiating neurospheres were estimated from a total of 6-8 neurospheres per condition over three independent experiments. To quantitated neuritis, the average diameter of an individual neurosphere was estimated from the vertical and horizontal distance. The number of extensions leaving the neurosphere body were then counted and an ratio of neurosphere extensions:average neurosphere diameter was calculated for each. All measurements including neurosphere diameter were evaluated using Scion Image.

[3] = system: MST1; experiment: Proteolysis of in vitro translated 35S-methionine labelled MST1 by C2C12 lysates; format: biochemical, human; conditions: 35S-labelled MST1 incubated with lysates of inhibitor-treated C2C12 cells
Description: Transfection Assays. The complete open reading frame of the human MST1, [Genbank Accession No. gi|1117790] obtained from a clone bank collection (Stratagene) was inserted into the expression vector pcDNA3.1 Myc/His (Invitrogen). A constitutively active MST1 (MST1-act) was prepared as previously described (Megeney, L. A., et al., (1996) Genes Dev 10, 1173-1183). The integrity of both MST1 and MST1-act were confirmed by sequencing. The kinase activity of these protein products were verified by transient transfection into COS1 cells followed by immunoprecipitation and kinase analysis using Histone-H1 as the target substrate (see below). Transfections with MST1 and MST1-act into both COS1 and primary myoblasts were performed using Lipofectamine Plus (Gibco) as directed in the manufacturer's instructions.
In vitro translation and MST1 proteolysis. MST1-pcDNA3.1 Myc/His was in vitro transcribed and translated using a TnT T7 Coupled Wheat Germ Extract System (Promega). The labelling efficiency was verified by SDS-PAGE, Coomassie-staining and autoradiography. […] The proteolytic cleavage of MST1 was assessed by SDS-PAGE and autoradiography.
One kinase that was altered in activity co-migrated with a predicted pI (5.2) and molecular weight (36 kDa) consistent with Mammalian Sterile Twenty-like kinase (MST1). […]

## COC(=O)CC[C@H](NC(=O)[C@H](CC(=O)OC)NC(=O)OCc1ccccc1)C(=O)N[C@H](C(=O)N[C@@H](CC(=O)OC)C(=O)CF)C(C)C [z-DEVD.fmk]
[1]; 12 h in differentiation media, cells dissociated from neurosphere
  Annexin-V positive/PI positive cell population: approximately 27%
[1]; 24 h in differentiation media
  level of apoptosis (Annexin-V-PI): 33%
[1]; inhibited relative to uninhibited cells
  effect on apoptosis during neurosphere differentiation: did not affect apoptosis
[2]
  neurite extensions / morphological changes: dramatic reduction in the formation of these projections; also recorded: absent
[3]
  36 kDa MST1 cleavage fragment: not apparent
[3]; listed as caspase-3 inhibitor
  36 kDa MST1 cleavage fragment: absent in caspase-3 inhibited samples
